Test results published in patent US8415369B2, “Spiroheterocyclic pyrrolidine dione derivatives useful as pesticides” (Syngenta Crop Protection LLC, priority 2007, dated 2013).

What was measured:
[1] = tested on: African bean aphid (Aphis craccivora); experiment: Example B21: insecticide seed treatment of sugarbeet seeds, reduction of aphids; type: in vivo; details: infested after 14 days, counted 7 days after infestation
Method: Insecticide Seed Treatment Sugarbeet seeds are treated with test compounds at various rates (mg a.i./seed). The seeds are sown into pots filled with soil. After placing the seeds on the soil surface they are further covered with soil. Before and during the bioassays, the plants are grown under optimal greenhouse conditions. After 14 days, the plants are infested with African bean aphid (Aphis craccivora) by placing one infested pea seedling containing approximately 150 aphids of a population of mixed developmental stages onto each plant. Seven days after infestation, the number of aphids is counted per plant. Each treatment group is replicated 10 times. Each replicate contains 1 plant. In this test, compounds listed in Tables A, B, C, D, E and F above show good activity.

[2] = tested on: Tetranychus urticae (two-spotted spider mite); experiment: Example B20: comparison with state of the art, Tetranychus urticae, feeding/residual contact activity, preventive; type: in vivo; details: for Death rate (%) after 8 days: bean leaf discs, mixed population, preventive
Text: Activity Against Tetranychus urticae (Two-Spotted Spider Mite)
(Mixed Population, Feeding/Residual Contact Activity, Preventive)
Bean leaf discs on agar in 24-well microtiter plates are sprayed with test solutions. […] 8 days later, discs are checked for egg mortality, larval mortality, and adult mortality.

[3] = tested on: Myzus persicae (green peach aphid); experiment: Example B19: comparison with state of the art, Myzus persicae, systemic/feeding activity, curative; type: in vivo; details: for Death rate (%) after 6 days (systemic action): pea seedling roots in test solution, curative
[4] = tested on: Thrips tabaci (onion thrips); experiment: Example B18: comparison with state of the art, Thrips tabaci, feeding/residual contact activity, preventive; type: in vivo; details: for Death rate (%) after 6 days: sunflower leaf discs, mixed population, preventive
[5] = tested on: Diabrotica balteata (corn root worm); experiment: Example B17: comparison with state of the art, Diabrotica balteata, larvicide, growth regulation; type: in vivo; details: for Inhibition of growth (%) after 5 dsys: artificial diet MTP, L2 larvae
Method: After drying, the MTP's are infested with larvae (L2)(6-10 per well). After an incubation period of 5 days, samples are checked for growth regulation.

[6] = tested on: Myzus persicae (green peach aphid); experiment: Example B16: comparison with state of the art, Myzus persicae, feeding/residual contact activity, preventive; type: in vivo; details: for Death rate (%) after 6 days: sunflower leaf discs, mixed population, preventive

SMILES: CON1CCC2(CC1)NC(=O)C(c1cc(C)ccc1C)=C2O [Compound C1, 3-(2,5-dimethyl-phenyl)-4-hydroxy-8-methoxy-1,8-diaza-spiro[4.5]dec-3-en-2-one]
- Efficacy, % (reduction of aphids compared to untreated control plants) ([1]; 0.03 mg a.i./seed): 65%
- Efficacy, % (reduction of aphids compared to untreated control plants) ([1]; 0.1 mg a.i./seed): 96%
- Efficacy, % (reduction of aphids compared to untreated control plants) ([1]; 0.3 mg a.i./seed): 99%
- Efficacy, % (reduction of aphids compared to untreated control plants) ([1]; 0.6 mg a.i./seed): 99%

SMILES: C=CCOC(=O)OC1=C(c2cc(C)ccc2C)C(=O)NC12CCN(OC)CC2 [Compound A5]
- Efficacy, % (reduction of aphids compared to untreated control plants) ([1]; 0.03 mg a.i./seed): 37%
- Efficacy, % (reduction of aphids compared to untreated control plants) ([1]; 0.1 mg a.i./seed): 97%
- Efficacy, % (reduction of aphids compared to untreated control plants) ([1]; 0.3 mg a.i./seed): 99%
- Efficacy, % (reduction of aphids compared to untreated control plants) ([1]; 0.6 mg a.i./seed): 100%

SMILES: CO[C@H]1CC[C@]2(CC1)NC(=O)C(c1cc(C)ccc1C)=C2OC(=O)C(C)(C)C [Compound I-1-b-20, reference compound]
- Death rate (%) after 8 days ([2]; 12.5 ppm): 0%
- Death rate (%) after 8 days ([2]; 50 ppm): 0%
- Death rate (%) after 8 days ([2]; 200 ppm): 50%
- Death rate (%) after 6 days (systemic action) ([3]; 200 ppm): 0%

SMILES: CON1CCC2(CC1)NC(=O)C(c1c(C)cc(C)cc1C)=C2O [Compound C2]
- Death rate (%) after 6 days ([4]; 12.5 ppm): 90%
- Death rate (%) after 6 days ([4]; 50 ppm): 100%
- Death rate (%) after 6 days ([4]; 200 ppm): 100%
- insecticidal action compared with the compound from the state of the art ([4]; vs compound Ia-32 of EP596298, Table B18): substantially better insecticidal action

SMILES: CO[C@H]1CC[C@]2(CC1)NC(=O)C(c1c(C)cc(C)cc1C)=C2O [Ia-32, reference compound]
- Death rate (%) after 6 days ([4]; 12.5 ppm): 25%
- Death rate (%) after 6 days ([4]; 50 ppm): 25%
- Death rate (%) after 6 days ([4]; 200 ppm): 25%

SMILES: CON1CCC2(CC1)NC(=O)C(c1cc(-c3ccc(Cl)cc3)ccc1C)=C2O [Compound C6]
- Inhibition of growth (%) after 5 dsys ([5]; 50 ppm): 50%
- Inhibition of growth (%) after 5 dsys ([5]; 200 ppm): 75%
- insecticidal action compared with the compound from the state of the art ([5]; vs compound 1-1-a-16 of WO1999/48869, Table B17): substantially better insecticidal action
- Death rate (%) after 6 days ([6]; 12.5 ppm): 25%
- Death rate (%) after 6 days ([6]; 50 ppm): 90%
- insecticidal action compared with the compound from the state of the art ([6]; vs compound 1-1-a-16 of WO1999/48869, Table B16): substantially better insecticidal action

SMILES: COC1CCC2(CC1)NC(=O)C(c1cc(-c3ccc(Cl)cc3)ccc1C)=C2O (centres unmarked) [Compound I-1-a-16]
- Inhibition of growth (%) after 5 dsys ([5]; 50 ppm): 0%
- Inhibition of growth (%) after 5 dsys ([5]; 200 ppm): 0%
- Death rate (%) after 6 days ([6]; 12.5 ppm): 0%
- Death rate (%) after 6 days ([6]; 50 ppm): 50%

SMILES: CON1CCC2(CC1)NC(=O)C(c1cc(C)ccc1C)=C2OC(=O)C(C)(C)C [Compound A9]
- Death rate (%) after 8 days ([2]; 12.5 ppm): 50%
- Death rate (%) after 8 days ([2]; 50 ppm): 80%
- Death rate (%) after 8 days ([2]; 200 ppm): 80%
- insecticidal action compared with the compound of the state of the art at low application rates ([2]; low application rates (50 and 12.5 ppm), vs compound I-1-b-20 of WO1998/05638): far superior
- insecticidal action compared with the compound from the state of the art ([2]; vs compound I-1-b-20 of WO1998/05638, Table B20): substantially better insecticidal action
- Death rate (%) after 6 days (systemic action) ([3]; 50 ppm): 50%
- Death rate (%) after 6 days (systemic action) ([3]; 200 ppm): 80%
- insecticidal action compared with the compound from the state of the art ([3]; vs compound I-1-b-20 of WO1998/05638, Table B19): substantially better insecticidal action

SMILES: CON1CCC2(CC1)NC(=O)C(c1cc(Br)c(F)cc1C)=C2O [Compound C19, 3-(5-Bromo-4-fluoro-2-methyl-phenyl)-4-hydroxy-8-methoxy-1,8-diaza-spiro[4.5]dec-3-en-2-one]
- melting point: 229 to 230 °C
